Tests used:
SARS-CoV = assay: Antiviral activity against SARS coronavirus infected in primary HAE cells; assay type: functional, organism-based; settings: Severe acute respiratory syndrome-related coronavirus
[1] = Cytotoxic activity in HAE cells; assay type: cell-based; settings: human
Feline coronavirus = assay: Antiviral activity against Feline corona virus infected in CRFK cells; assay type: functional, organism-based; settings: Alphacoronavirus 1, CRFK
[2] = system: Middle East respiratory syndrome-related coronavirus; assay: Antiviral activity against Middle East respiratory syndrome coronavirus infected in primary HAE cells; assay type: functional, organism-based
in vivo [3] = settings: rhesus monkey, serum, iv
in vivo [4] = settings: mouse

Question: For `N#C[C@@]1(c2ccc3c(N)ncnn23)O[C@H](COP(=O)(O)OP(=O)(O)OP(=O)(O)O)[C@@H](O)[C@H]1O` [RDV-TP], which EC50 (SARS-CoV) is on record?
Answer: 0.18 µM

Question: And the CC50 [1]?
Answer: > 100 µM

Question: And the EC50 (Feline coronavirus)?
Answer: 0.78 µM

Question: And the EC50 [2]?
Answer: 0.86 µM

Question: With `CCC(CC)COC(=O)[C@H](C)N[P@](=O)(OC[C@H]1O[C@@](C#N)(c2ccc3c(N)ncnn23)[C@H](O)[C@@H]1O)Oc1ccccc1` [REMDESIVIR] as the compound, how does the EC50 (SARS-CoV) read?
Answer: 0.069 µM

Question: And the CC50 [1]?
Answer: > 10 µM

Question: What about the EC50 [2] of the same compound?
Answer: 0.074 µM

Question: What about the half-life (in vivo [3]) of the same compound?
Answer: 24 min

Question: What about the half-life (in vivo [4]) of the same compound?
Answer: 25 min

From ChEMBL document CHEMBL4619785, “Advantages of the Parent Nucleoside GS-441524 over Remdesivir for Covid-19 Treatment” (ACS Med Chem Lett, 2020)
